# Data from US4758586A, “Indolyl compounds and hyposensitivity use thereof” (USV Pharmaceutical Corp., priority 1986, dated 1988).
# How the values were obtained:
# 5-lipoxygenase = molecular target: T1, 5-lipoxygenase (Rattus norvegicus, UniProt P12527); test: Protocol for detecting inhibitors of the lipoxygenase pathway (5-HETE formation in rat neutrophils); type: cell-based; settings: rat PMN, [14C]-arachidonic acid + A23187, 5-HETE; read-out: LOX, (RAT PMN) I50
# T1 construct: A suspension of rat neutrophils in buffer; endogenous in cells; host or cells: rat neutrophils (PMN)
# T1 sequence (P12527 1-673): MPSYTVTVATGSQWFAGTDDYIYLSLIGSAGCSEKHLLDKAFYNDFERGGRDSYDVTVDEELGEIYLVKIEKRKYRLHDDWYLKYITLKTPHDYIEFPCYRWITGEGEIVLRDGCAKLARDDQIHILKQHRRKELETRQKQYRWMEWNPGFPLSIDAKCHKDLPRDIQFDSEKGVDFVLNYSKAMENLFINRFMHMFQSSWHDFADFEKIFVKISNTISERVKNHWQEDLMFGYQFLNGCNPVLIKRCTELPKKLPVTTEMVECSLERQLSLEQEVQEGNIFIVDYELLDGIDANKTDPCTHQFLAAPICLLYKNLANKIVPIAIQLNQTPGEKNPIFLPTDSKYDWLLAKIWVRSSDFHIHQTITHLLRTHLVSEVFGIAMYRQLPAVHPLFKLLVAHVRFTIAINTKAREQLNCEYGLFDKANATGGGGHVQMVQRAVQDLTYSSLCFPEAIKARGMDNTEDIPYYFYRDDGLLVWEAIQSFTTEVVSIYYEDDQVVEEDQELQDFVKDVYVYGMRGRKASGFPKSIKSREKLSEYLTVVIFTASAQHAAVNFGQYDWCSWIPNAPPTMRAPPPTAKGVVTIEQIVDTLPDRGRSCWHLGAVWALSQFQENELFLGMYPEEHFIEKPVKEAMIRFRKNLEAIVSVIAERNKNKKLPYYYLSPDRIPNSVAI
# Protocol: Protocol for Detecting Inhibitors of the Lipoxygenase Pathway
# A suspension of rat neutrophils in buffer is incubated for 3 minutes at 30° C. with [^14 C]-arachidonic acid (AA) and Calcium Ionophore A23187. Citric acid (2M) is used to quench the reaction. Following the addition of a trace amount of (^3 H)-5-HETE together with an excess of unlabeled 5-HETE to each tube, the mixture is extracted with chloroform/methanol. The organic layer is washed with dilute acid and an aliquot is transferred to glass tubes and dried. The residue is dissolved in a small volume of chloroform and an aliquot is spotted on silica get TLC sheets, which are developed with an ethyl acetate/isooctane/water acetic acid solvent system. The 5-HETE spots are visualized with iodine, cut out and placed in scintillation vials for counting. After adjusting for the extraction efficiency, the amount (pmole) of [^14 C]-5-HETE in each of the tubes is quantitated. The net pmoles of 5-HETE are obtained by subtracting the pmoles of 5-HETE in the tubes containing […]. The ability of the test compounds to modulate the activity of this enzyme is determined by a decrease or increase in the net amount of 5-HETE produced.
# [1] = tested on: leukotriene C4 -induced contraction of guinea pig peripheral strips; test: SRS-A antagonists (SALTI): leukotriene C4-induced contraction of guinea pig peripheral lung strips; settings: Cavia porcellus; 0.2 μM leukotriene C4-induced contraction; read-out: SALTI, I50 μM
# Protocol: Protocol for SRS-A (Slow-reacting Substance of Anaphylaxis Antagonists (SALTI)
# Peripheral strips of guinea pig lungs are prepared and hung in tissue baths (Metro #ME-5505, 10 ml) according to the published procedure (Pro. Nat'l. Acad. Sci., U.S.A. Volume 77, pp. 4354-4358, 1980). The strips are thoroughly rinsed in Assay Buffer and then connected with surgical silk thread to the support rods from the tissue baths. The rods are adjusted in the baths and the strips connected to the pressure transducers (Grass FT 103 or Gould UC-3). The tissue baths are aerated with 95% oxygen 5% carbon dioxide and maintained at 37° C. The Assay Buffer has been made as follows: For each liter of buffer the following are added to approximately 800 ml of water distilled in glass--6.87 g. NaCl, 0.4 g. KCl, […]. NaHCO3, 0.14 g. NaH2 PO4.H2 O, 0.21 g. MgSO4.7H2 O, and 2.0 g. D-glucose. Then a solution of 0.368 g. CaCl2.2H2 O in 100 ml glass-distilled water is slowly added to the buffer. Sufficient water is added to adjust the volume to one liter, and the solution is aerated with 95% oxygen--5% carbon dioxide. Usually 10 liters of buffer are used for an experiment with 4 tissues.
# After the tissues have been repeatedly washed and allowed to equilibrate in the tissue bath, they are challenged with 1 μM histamine. After maximum contractions have been obtained, the tissues are washed, and allowed to relax back to baseline tension. This histamine challenge procedure is repeated at least 1 to 2 more times to obtain a repeatable control response. The average response to 1 μM histamine for each tissue is used to normalize all other challenges.
# Responses of each tissue to a predetermined concentration of leukotriene are then obtained. Usually test compounds are examined initially at 30 μM on resting tension of the tissues without any added agonist or antagonist to determine if the compound has any possible intrinsic activity. The tissues are washed, and the test compound is added again. Leukotriene is added after the desired pre-incubation time. The intrinsic activity of the compounds, and their effect on leukotriene-induced contractions are then recorded.
# The concentration required for 50% inhibition of 0.2 μM leukotriene C4 -induced contraction of guinea pig peripheral strips for representative compounds of the present invention is shown in Table 3.
smiles,measurement,setting,value
"CCC(=CC=Cc1cn(Cc2ccccc2)c2ccccc12)C(=O)O [Example 9, 5-(1-Benzylindol-3-yl)-2-Ethyl-2,4-Pentadienoic Acid]",IC50,5-lipoxygenase,2.3 µM
same,IC50,[1],18 µM
